Reference: US10392383B2, “3-(1H-benzo[d]imidazol-2-yl)-1H-pyrazolo[4,3-b]pyridines and therapeutic uses thereof” (Samumed, LLC, priority 2015, dated 2019)

Key:
[1] = test system: SW480 colon cancer cells; assay: Cell viability assay (CellTiter-Blue) in SW480 cells; assay type: cell-based; conditions: Homo sapiens, 96 h, four days; for inhibition at 10 µM: read-out: percent inhibition at 10 μM (given for EC50 of >10 μM); for EC50: CellTiter-Blue, 10 μM to 0.0045 μM
In short: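 Resazurin reduction (Ex 560/Em 590 nm, ~3 h reagent incubation) served as the viability read-out after SW480 cells were treated for four days at 37 °C. Doses ran from 10 μM down to 0.0045 μM in eight 1:3 steps. Curves fitted non-linearly for EC50, else % inhibition at 10 μM reported.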

[2] = test system: primary human fibroblasts derived from IPF patients (LL29 cells) treated with TGF-β1; assay: Inhibition of the fibrotic process: αSMA staining in TGF-β1-treated LL29 fibroblasts; assay type: cell-based; conditions: Fibroblast; for inhibition at 10 µM: LL29 fibroblasts treated with TGF-β1, Table 4, read-out: percent inhibition at 10 μM (given in parentheses for EC50 >10 μM); for EC50: 96 h, LL29 fibroblasts treated with TGF-β1 (20 ng/mL), 4 days, Table 4
In short: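 EC50 from triplicate-well dose-response fits of % αSMA-positive cells, normalized to TGF-β1-stimulated DMSO controls, with SYTOX-positive dead cells excluded. LL29 IPF fibroblasts received compound at 10 μM–1.87 nM (0.1% DMSO) plus 20 ng/mL TGF-β1 for 4 days in 1% FBS medium; above 10 μM, % inhibition at 10 μM reported.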

EC50 [1] | SMILES | inhibition at 10 µM [1] | inhibition at 10 µM [2] | EC50 [2]
> 10 µM | COc1cccc(-c2cccc3[nH]c(-c4n[nH]c5ccc(-c6cncc(NC(=O)C7CCCCC7)c6)nc45)nc23)c1 [Compound 1012, N-(5-(3-(4-(3-Methoxyphenyl)-1H-benzo[d]imidazol-2-yl)-1H-pyrazolo[4,3-b]pyridin-5-yl)pyridin-3-yl)cyclohexanecarboxamide] | 4.6% | 36.9% | > 10 µM
9.42 µM | CN1CCN(c2cccc3[nH]c(-c4n[nH]c5ccc(-c6cncc(NC(=O)C(F)(F)F)c6)nc45)nc23)CC1 [Compound 1127, 2,2,2-Trifluoro-N-(5-(3-(4-(4-methylpiperazin-1-yl)-1H-benzo[d]imidazol-2-yl)-1H-pyrazolo[4,3-b]pyridin-5-yl)pyridin-3-yl)acetamide] |  |  | 8.31 µM
0.547 µM | Fc1ccc(-c2cccc3[nH]c(-c4n[nH]c5ccc(-c6cncc(CN7CCCC7)c6)nc45)nc23)cc1 [Compound 42, 3-(4-(4-Fluorophenyl)-1H-benzo[d]imidazol-2-yl)-5-(5-(pyrrolidin-1-ylmethyl)pyridin-3-yl)-1H-pyrazolo[4,3-b]pyridine] |  |  | 3.51 µM
> 10 µM | c1ccc2[nH]c(-c3n[nH]c4ccc(-c5cn[nH]c5)nc34)nc2c1 [Compound 651, 3-(1H-Benzo[d]imidazol-2-yl)-5-(1H-pyrazol-4-yl)-1H-pyrazolo[4,3-b]pyridine] | 33.9% | 0% | > 10 µM
> 10 µM | CC(C)C(=O)Nc1cncc(-c2ccc3[nH]nc(-c4nc5c(-c6ccccc6F)cccc5[nH]4)c3n2)c1 [Compound 65, N-(5-(3-(4-(2-fluorophenyl)-1H-benzo[d]imidazol-2-yl)-1H-pyrazolo[4,3-b]pyridin-5-yl)pyridin-3-yl)isobutyramide] | 16.1% |  | 4.97 µM
> 10 µM | O=C(CC1CCNCC1)Nc1cncc(-c2ccc3[nH]nc(-c4nc5c(-c6ccccn6)cccc5[nH]4)c3n2)c1 [Compound 593, 2-(Piperidin-4-yl)-N-(5-(3-(4-(pyridin-2-yl)-1H-benzo[d]imidazol-2-yl)-1H-pyrazolo[4,3-b]pyridin-5-yl)pyridin-3-yl)acetamide] | 13.6% |  | 1.37 µM
3.18 µM | c1ccc(CNCc2cncc(-c3ccc4[nH]nc(-c5nc6c(-c7cccnc7)cccc6[nH]5)c4n3)c2)cc1 [Compound 108, N-Benzyl-1-(5-(3-(4-(pyridin-3-yl)-1H-benzo[d]imidazol-2-yl)-1H-pyrazolo [4,3-b]pyridin-5-yl)pyridin-3-yl)methanamine] |  |  | 2.54 µM
5.27 µM | CC(C)(C)C(=O)Nc1cncc(-c2ccc3[nH]nc(-c4nc5c(-c6ccc(Cl)s6)cccc5[nH]4)c3n2)c1 [Compound 1043, N-(5-(3-(4-(5-chlorothiophen-2-yl)-1H-benzo[d]imidazol-2-yl)-1H-pyrazolo[4,3-b]pyridin-5-yl)pyridin-3-yl)pivalamide] |  |  | 2.33 µM
2.28 µM | c1cc(-c2ccc3c(c2)OCO3)c2nc(-c3n[nH]c4ccc(C5CCNCC5)nc34)[nH]c2c1 [Compound 1108, 3-(4-(Benzo[d][1,3]dioxol-5-yl)-1H-benzo[d]imidazol-2-yl)-5-(piperidin-4-yl)-1H-pyrazolo[4,3-b]pyridine] |  | 14.1% | > 10 µM
> 10 µM | CC(C)C(=O)Nc1cncc(-c2ccc3[nH]nc(-c4nc5c(N6CCN(C)CC6)cccc5[nH]4)c3n2)c1 [Compound 233, N-(5-(3-(4-(4-Methylpiperazin-1-yl)-1H-benzo[d]imidazol-2-yl)-1H-pyrazolo[4,3-b]pyridin-5-yl)pyridin-3-yl)isobutyramide] | 6.4% | 24.7% | > 10 µM
> 10 µM | O=C(Nc1cncc(-c2ccc3[nH]nc(-c4nc5c(-c6ccc(F)cc6)cccc5[nH]4)c3n2)c1)C1CCC1 [Compound 49, N-(5-(3-(4-(4-Fluorophenyl)-1H-benzo[d]imidazol-2-yl)-1H-pyrazolo[4,3-b]pyridin-5-yl)pyridin-3-yl)cyclobutanecarboxamide] | 12.9% | 0% | > 10 µM
3.46 µM | O=C(Nc1cncc(-c2ccc3[nH]nc(-c4nc5c(-c6ccsc6)cccc5[nH]4)c3n2)c1)c1ccccc1 [Compound 291, N-(5-(3-(4-(Thiophen-3-yl)-1H-benzo[d]imidazol-2-yl)-1H-pyrazolo[4,3-b]pyridin-5-yl)pyridin-3-yl)benzamide] |  |  | 2.62 µM
> 10 µM | c1cc(-c2ccncc2)c2nc(-c3n[nH]c4ccc(-c5ccncc5)nc34)[nH]c2c1 [Compound 130, 5-(Pyridin-4-yl)-3-(4-(pyridin-4-yl)-1H-benzo[d]imidazol-2-yl)-1H-pyrazolo [4,3-b]pyridine] | 23.4% |  | 1.07 µM
> 10 µM | c1cc(-c2ccncc2)c2nc(-c3n[nH]c4ccc(-c5cncc(OC6CCNCC6)c5)nc34)[nH]c2c1 [Compound 576, 5-(5-(Piperidin-4-yloxy)pyridin-3-yl)-3-(4-(pyridin-4-yl)-1H-benzo[d]imidazol-2-yl)-1H-pyrazolo[4,3-b]pyridine] | 9% | 9.2% | > 10 µM
1.14 µM | CN(C)Cc1cncc(-c2ccc3[nH]nc(-c4nc5c(N6CCCCC6)cccc5[nH]4)c3n2)c1 [Compound 181, N,N-dimethyl-1-(5-(3-(4-(piperidin-1-yl)-1H-benzo[d]imidazol-2-yl)-1H-pyrazolo[4,3-b]pyridin-5-yl)pyridin-3-yl)methanamine] |  |  | 0.785 µM
> 10 µM | CC(C)(C)CC(=O)Nc1cncc(-c2ccc3[nH]nc(-c4nc5c(-c6ccccc6F)cccc5[nH]4)c3n2)c1 [Compound 72, N-(5-(3-(4-(2-Fluorophenyl)-1H-benzo[d]imidazol-2-yl)-1H-pyrazolo[4,3-b]pyridin-5-yl)pyridin-3-yl)-3,3-dimethylbutanamide] | 2% |  | 2.18 µM
> 10 µM | CN1CCN(c2cccc3[nH]c(-c4n[nH]c5ccc(-c6cncc(N)c6)nc45)nc23)CC1 [Compound 227, 5-(3-(4-(4-Methylpiperazin-1-yl)-1H-benzo[d]imidazol-2-yl)-1H-pyrazolo [4,3-b]pyridin-5-yl)pyridin-3-amine] | 18.4% | 32.1% | > 10 µM
8.95 µM | CC(C)Nc1cncc(-c2ccc3[nH]nc(-c4nc5c(-c6cccnc6)cccc5[nH]4)c3n2)c1 [Compound 96, N-Isopropyl-5-(3-(4-(pyridin-3-yl)-1H-benzo[d]imidazol-2-yl)-1H-pyrazolo [4,3-b]pyridin-5-yl)pyridin-3-amine] |  |  | 1.21 µM
> 10 µM | c1ccc(COc2cncc(-c3ccc4[nH]nc(-c5nc6c(-c7ccncc7)cccc6[nH]5)c4n3)c2)cc1 [Compound 582, 5-(5-(Benzyloxy)pyridin-3-yl)-3-(4-(pyridin-4-yl)-1H-benzo[d]imidazol-2-yl)-1H-pyrazolo[4,3-b]pyridine] | 28.5% |  | 1.42 µM
> 10 µM | c1ccc2[nH]c(-c3n[nH]c4ccc(-c5cncc(OC6CCNCC6)c5)nc34)nc2c1 [Compound 656, 3-(1H-Benzo[d]imidazol-2-yl)-5-(5-(piperidin-4-yloxy)pyridin-3-yl)-1H-pyrazolo[4,3-b]pyridine] | 20.8% | 45.9% | > 10 µM
> 10 µM | O=C(Cc1ccccc1)Nc1cncc(-c2ccc3[nH]nc(-c4nc5ccccc5[nH]4)c3n2)c1 [Compound 262, N-(5-(3-(1H-Benzo[d]imidazol-2-yl)-1H-pyrazolo[4,3-b]pyridin-5-yl)pyridin-3-yl)-2-phenylacetamide] | 13.9% | 0% | > 10 µM
> 10 µM | Cc1ccncc1-c1ccc2[nH]nc(-c3nc4c(-c5ccncc5)cccc4[nH]3)c2n1 [Compound 117, 5-(4-Methylpyridin-3-yl)-3-(4-(pyridin-4-yl)-1H-benzo[d]imidazol-2-yl)-1H-pyrazolo[4,3-b]pyridine] | 16.9% | 0% | > 10 µM
> 10 µM | CS(=O)(=O)NCc1cc(F)cc(-c2cccc3[nH]c(-c4n[nH]c5ccc(-c6cncc(NC(=O)c7ccccc7)c6)nc45)nc23)c1 [Compound 487, N-(5-(3-(4-(3-Fluoro-5-(methylsulfonamidomethyl)phenyl)-1H-benzo[d]imidazol-2-yl)-1H-pyrazolo[4,3-b]pyridin-5-yl)pyridin-3-yl)benzamide] | 9.7% | 0% | > 10 µM

SMILES | EC50 [1] | inhibition at 10 µM [1] | inhibition at 10 µM [2] | EC50 [2]
Cc1cn(-c2cccc3[nH]c(-c4n[nH]c5ccc(C6=CCNCC6)nc45)nc23)cn1 [Compound 618, 3-(4-(4-Methyl-1H-imidazol-1-yl)-1H-benzo[d]imidazol-2-yl)-5-(1,2,3,6-tetrahydropyridin-4-yl)-1H-pyrazolo[4,3-b]pyridine] | > 10 µM | 7.4% | 7.7% | > 10 µM
